“And” between values parts separate entries of the source, which are not always exact repeats. Equal entries are not always repeated.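 How tested: cells in 96-well plates exposed to compound for 48 hours at five concentrations. At the GI50, growth is halved. TGI: total growth inhibition.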 Some results are limits rather than exact numbers.

For nine compounds, GI50 and TGI results are on record in PubChem BioAssay (NCI).

Among the test systems are COLO 205 colon; MALME-3M melanoma; HOP-92 NSCLC; SR leukemia; SK-MEL-5 melanoma; 786-0 renal; TK-10 renal; HT29 colon.
Assay in all cases: NCI-60 cell line screen, 48 h

Regarding `C[C@@]12CCC[C@@](C)(C(=O)O)C1CC[C@]13CC(=O)[C@](CO)(C1)[C@@H](O)CC32` (stereo partly drawn), the GI50 in the assay on COLO 205 colon, in the assay on MALME-3M melanoma, in the assay on HOP-92 NSCLC, in the assay with SR leukemia, in the assay with SK-MEL-5 melanoma and with 786-0 renal was greater than 100000 nM each time. The GI50 in the assay on TK-10 renal and in the assay with HT29 colon was greater than 100000 nM throughout. Moreover, the TGI in the assay on COLO 205 colon, with MALME-3M melanoma, in the assay on HOP-92 NSCLC, in the assay with SR leukemia, with SK-MEL-5 melanoma and with 786-0 renal was greater than 100 µM throughout. The TGI in the assay on TK-10 renal and in the assay on HT29 colon was greater than 100 µM throughout.
In the case of `COc1ccc(C(O)(CCC(C)C)C(CN2CCOCC2)c2ccc(Cl)cc2)cc1` (stereo not drawn), the GI50 in the assay with COLO 205 colon is 12700 nM; with MALME-3M melanoma, 19100 nM; with HOP-92 NSCLC it was 8000 nM; with SR leukemia, 10400 nM; in the assay on SK-MEL-5 melanoma, 13800 nM; in the assay with 786-0 renal, 14000 nM. For the same compound, the GI50 in the assay with TK-10 renal is 16700 nM; in the assay on HT29 colon, 4410 nM. Further, the TGI is 30.9 µM with COLO 205 colon; 39.5 µM in the assay with MALME-3M melanoma; 21.7 µM with HOP-92 NSCLC; 28.9 µM in the assay with SR leukemia; 30.9 µM in the assay on SK-MEL-5 melanoma; 28.6 µM in the assay on 786-0 renal. The TGI in the assay on TK-10 renal amounted to 31.3 µM; with HT29 colon it was 20.1 µM.
For `COc1cc(/C=C\c2cc(OC)c(OC)c(OC)c2)cc(N/C=C\C(=O)c2cc(OC)c(OC)c(OC)c2)c1OC`, the GI50 in the assay on COLO 205 colon is 2310 nM; in the assay on MALME-3M melanoma, 2910 nM; with HOP-92 NSCLC, 1140 nM; in the assay on SR leukemia, 2030 nM; in the assay on SK-MEL-5 melanoma it was 1690 nM; with 786-0 renal, 3760 nM. The GI50 in the assay with TK-10 renal was 5930 nM; in the assay on HT29 colon it was 3210 nM. For the same compound, the TGI was 5.7 µM in the assay on COLO 205 colon; greater than 100 µM in the assay on MALME-3M melanoma; 6.56 µM in the assay on HOP-92 NSCLC; greater than 100 µM with SR leukemia; 4.48 µM in the assay with SK-MEL-5 melanoma; greater than 100 µM with 786-0 renal. Further, the results for the TGI in the assay on TK-10 renal and in the assay on HT29 colon were greater than 100 µM and 14.8 µM, respectively.
`CS(=O)(=O)Nc1cc(-c2ccc3ncnc(Nc4c(Cl)ccc5c4OCO5)c3c2)cnc1Cl`: the GI50 is 263 nM in the assay with COLO 205 colon; 52.5 nM in the assay on MALME-3M melanoma; 59.7 nM in the assay with HOP-92 NSCLC; 325 nM in the assay on SR leukemia; 191 nM in the assay with SK-MEL-5 melanoma; 233 nM with 786-0 renal. Also, the figures for the GI50 in the assay on TK-10 renal and in the assay with HT29 colon were 47 nM and 238 nM, respectively. For the same compound, the TGI in the assay with COLO 205 colon came to 1.35 µM; in the assay on MALME-3M melanoma it was 0.515 µM; in the assay on HOP-92 NSCLC, 0.639 µM; in the assay on SR leukemia, 3.41 µM; in the assay with SK-MEL-5 melanoma it was 0.465 µM; with 786-0 renal, 6.46 µM. The TGI was determined as 0.888 µM in the assay with TK-10 renal and 3.93 µM in the assay with HT29 colon.
On to `CN(C)c1ccc(N=Nc2ccccn2)c(O)c1`, for which the GI50 in the assay on COLO 205 colon is 345 nM; with MALME-3M melanoma, 1440 nM; in the assay on HOP-92 NSCLC it was 666 nM; in the assay on SR leukemia it was 123 nM; in the assay with SK-MEL-5 melanoma it was 433 nM; in the assay with 786-0 renal, 246 nM. The GI50 is 177 nM with TK-10 renal and 415 nM with HT29 colon. The TGI in the assay on COLO 205 colon is greater than 34.8 µM; with MALME-3M melanoma, greater than 100 µM; with HOP-92 NSCLC it was 50.2 µM; in the assay on SR leukemia, greater than 100 µM; in the assay with SK-MEL-5 melanoma, 3.35 µM; in the assay with 786-0 renal, 15.9 µM. Further, the TGI is 43.9 µM in the assay with TK-10 renal and greater than 100 µM with HT29 colon.
Take `C[C@H](Nc1cc(Cl)nc2c1cnn2[C@@H]1O[C@H](COP(=O)(O)CP(=O)(O)O)[C@@H](O)[C@H]1O)c1ccccc1F`: the GI50 in the assay with COLO 205 colon, in the assay on MALME-3M melanoma, in the assay with HOP-92 NSCLC, in the assay with SR leukemia, in the assay with SK-MEL-5 melanoma and with 786-0 renal was greater than 100000 nM each time. Also, the GI50 in the assay on TK-10 renal and in the assay with HT29 colon was greater than 100000 nM throughout. In addition, the TGI in the assay with COLO 205 colon, in the assay on MALME-3M melanoma, with HOP-92 NSCLC, in the assay on SR leukemia, with SK-MEL-5 melanoma and in the assay on 786-0 renal was greater than 100 µM in each case. Also, the TGI in the assay on TK-10 renal and with HT29 colon was greater than 100 µM in each case.
With `CN(C)C/C=C/C(=O)Nc1cc2c(Nc3ccc(F)c(Cl)c3)ncnc2cc1O[C@H]1CCOC1`, the GI50 in the assay with COLO 205 colon was 998 nM and 887 nM; with MALME-3M melanoma, 2100 nM and 1220 nM; in the assay on HOP-92 NSCLC, 227 nM; in the assay with SR leukemia it was 3460 nM and 1260 nM; in the assay on SK-MEL-5 melanoma, 1310 nM and 2110 nM; in the assay with 786-0 renal it was 2300 nM and 1790 nM. Besides, the GI50 with TK-10 renal is < 10 nM and 1.36 nM; in the assay with HT29 colon, 815 nM and 756 nM. The TGI in the assay with COLO 205 colon is 3.09 µM and > 5.59 µM; in the assay on MALME-3M melanoma, 4.16 µM and 3.95 µM; with HOP-92 NSCLC, 4.44 µM; in the assay with SR leukemia, 13.2 µM and 6.5 µM; in the assay with SK-MEL-5 melanoma, 2.75 µM and > 5.59 µM; with 786-0 renal, 13.9 µM and > 10 µM. Also, in the assay with HT29 colon, the TGI was 3.49 µM and > 10 µM.
Take `Cc1ccc(Nc2oc(-c3ccccc3)nc2[P+](c2ccccc2)(c2ccccc2)c2ccccc2)cc1`: the GI50 is 1330 nM in the assay on COLO 205 colon; 459 nM in the assay on MALME-3M melanoma; 209 nM in the assay with HOP-92 NSCLC; 698 nM in the assay on SR leukemia; 493 nM with SK-MEL-5 melanoma; 1100 nM in the assay with 786-0 renal. Also, the GI50 was 1370 nM with TK-10 renal and 380 nM in the assay with HT29 colon. Also, the TGI with COLO 205 colon was 3.1 µM; with MALME-3M melanoma it was 1.43 µM; in the assay with HOP-92 NSCLC it was 1.02 µM; with SR leukemia, 2.44 µM; in the assay with SK-MEL-5 melanoma it was 1.4 µM; in the assay with 786-0 renal, 2.45 µM. Moreover, the TGI in the assay on TK-10 renal was determined as 2.93 µM; with HT29 colon, 1.59 µM.
For the compound `COC(=O)c1ccc2c(c1)/C(=C\c1cc(Br)c(O)c(Br)c1)C(=O)N2`, the GI50 with COLO 205 colon was 6800 nM; in the assay on MALME-3M melanoma, 2080 nM; in the assay on HOP-92 NSCLC, 2450 nM; in the assay with SR leukemia it was 8110 nM; with SK-MEL-5 melanoma it was 4480 nM; in the assay with 786-0 renal it was 10100 nM. Besides, the GI50 in the assay with TK-10 renal was 6790 nM; in the assay with HT29 colon, 4300 nM. Besides, the TGI in the assay with COLO 205 colon is greater than 25 µM; in the assay on MALME-3M melanoma it was 13.8 µM; with HOP-92 NSCLC, 17.4 µM; in the assay with SR leukemia, greater than 25 µM; in the assay on SK-MEL-5 melanoma, greater than 16.5 µM; in the assay with 786-0 renal, greater than 25 µM. Further, the TGI with TK-10 renal was greater than 23.3 µM; in the assay on HT29 colon it was greater than 25 µM.
